# Data as given in publication PMC9863004, “Development of [^124/125I]IAZA as a New Proteinopathy Imaging Agent for Alzheimer’s Disease” (Molecules, 2023).
# Columns and labels:
# [1] = target: T1, Aβ amyloid plaques (amyloid β) (Homo sapiens, UniProt P05067); assay: displacement of […]IAZA at […], autoradiography in human AD brain slices
# T1 construct: gene APP; aggregated Aβ plaques in postmortem human AD brain slices
# [2] = target: T1, Aβ amyloid plaques (amyloid β); assay: autoradiographic radioligand competition with […]IBETA in human AD brain slices; direct [[…]I]IAZA binding
# T1 sequence (P05067 18-770): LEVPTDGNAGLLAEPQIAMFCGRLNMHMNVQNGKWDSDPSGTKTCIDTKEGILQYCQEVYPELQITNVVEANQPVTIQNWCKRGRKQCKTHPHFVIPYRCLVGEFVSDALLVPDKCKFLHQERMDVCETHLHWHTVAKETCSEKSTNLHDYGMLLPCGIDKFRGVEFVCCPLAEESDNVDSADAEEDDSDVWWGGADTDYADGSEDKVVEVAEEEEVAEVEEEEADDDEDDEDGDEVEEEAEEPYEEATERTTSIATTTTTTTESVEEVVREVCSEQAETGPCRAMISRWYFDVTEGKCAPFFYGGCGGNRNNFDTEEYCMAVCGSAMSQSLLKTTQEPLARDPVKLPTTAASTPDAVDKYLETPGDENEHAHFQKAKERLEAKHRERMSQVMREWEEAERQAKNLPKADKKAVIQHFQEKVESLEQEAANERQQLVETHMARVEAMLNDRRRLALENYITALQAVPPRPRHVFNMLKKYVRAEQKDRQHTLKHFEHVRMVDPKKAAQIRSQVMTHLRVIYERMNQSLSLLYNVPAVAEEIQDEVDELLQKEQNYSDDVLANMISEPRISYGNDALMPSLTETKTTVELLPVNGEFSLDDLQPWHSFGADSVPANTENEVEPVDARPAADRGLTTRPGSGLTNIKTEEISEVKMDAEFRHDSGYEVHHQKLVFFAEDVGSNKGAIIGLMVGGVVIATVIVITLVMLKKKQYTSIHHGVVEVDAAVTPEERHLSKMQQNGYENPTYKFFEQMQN
inhibition at 10 µM [1] [%],Ki [2] [µM],Compound
> 95,–,CN(C)c1ccc(-c2cc3cc(Br)ccc3o2)cn1 [BrBETA]
–,0.0109,"CN(C)c1ccc(N=Nc2ccc(I)cc2)cc1 [compound 5, 4′-iodo-4-dimethylaminoazobenzene]"
